# From ChEMBL document CHEMBL2073819, “Enhanced exposure of phosphatidylserine in human gastric carcinoma cells overexpressing the half-size ABC transporter BCRP (ABCG2)” (Biochem J, 2003)
# How the values were obtained:
# Assay type in all cases: functional, cell-based
# [1] = target: T1, Broad substrate specificity ATP-binding cassette transporter ABCG2 (Homo sapiens, UniProt Q9UNQ0); assay: TP_TRANSPORTER: inhibition of C6-NBD-PS efflux in BCRP-expressing EPG85-257 cells
# T1 sequence (Q9UNQ0 whole entry): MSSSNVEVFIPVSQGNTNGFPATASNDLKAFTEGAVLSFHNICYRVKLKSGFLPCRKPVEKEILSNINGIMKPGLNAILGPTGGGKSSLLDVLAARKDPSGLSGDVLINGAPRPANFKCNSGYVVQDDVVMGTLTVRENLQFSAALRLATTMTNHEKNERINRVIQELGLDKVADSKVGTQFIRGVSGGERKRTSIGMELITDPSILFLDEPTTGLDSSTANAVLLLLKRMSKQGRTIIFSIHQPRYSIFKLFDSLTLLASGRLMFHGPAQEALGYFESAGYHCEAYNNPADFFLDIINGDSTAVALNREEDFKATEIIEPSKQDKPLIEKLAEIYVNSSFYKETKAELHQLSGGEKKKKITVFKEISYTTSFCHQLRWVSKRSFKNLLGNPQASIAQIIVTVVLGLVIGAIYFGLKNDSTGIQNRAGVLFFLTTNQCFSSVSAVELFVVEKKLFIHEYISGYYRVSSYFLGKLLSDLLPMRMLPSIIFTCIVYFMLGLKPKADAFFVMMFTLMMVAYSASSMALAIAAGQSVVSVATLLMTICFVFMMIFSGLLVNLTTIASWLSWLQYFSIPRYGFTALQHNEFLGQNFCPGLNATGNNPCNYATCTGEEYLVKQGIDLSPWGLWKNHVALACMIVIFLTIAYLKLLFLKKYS
# [2] = target: T2, ATP-dependent translocase ABCB1 (Homo sapiens, UniProt P08183); assay: TP_TRANSPORTER: inhibition of C6-NBD-PS efflux in MDR1-expressing EPG85-257 cells
# [3] = target: T2, ATP-dependent translocase ABCB1; assay: TP_TRANSPORTER: efflux in MDR1-expressing EPG85-257 cells
# [4] = target: T1, Broad substrate specificity ATP-binding cassette transporter ABCG2; assay: TP_TRANSPORTER: efflux in BCRP-expressing EPG85-257 cells
# T2 sequence (P08183 whole entry): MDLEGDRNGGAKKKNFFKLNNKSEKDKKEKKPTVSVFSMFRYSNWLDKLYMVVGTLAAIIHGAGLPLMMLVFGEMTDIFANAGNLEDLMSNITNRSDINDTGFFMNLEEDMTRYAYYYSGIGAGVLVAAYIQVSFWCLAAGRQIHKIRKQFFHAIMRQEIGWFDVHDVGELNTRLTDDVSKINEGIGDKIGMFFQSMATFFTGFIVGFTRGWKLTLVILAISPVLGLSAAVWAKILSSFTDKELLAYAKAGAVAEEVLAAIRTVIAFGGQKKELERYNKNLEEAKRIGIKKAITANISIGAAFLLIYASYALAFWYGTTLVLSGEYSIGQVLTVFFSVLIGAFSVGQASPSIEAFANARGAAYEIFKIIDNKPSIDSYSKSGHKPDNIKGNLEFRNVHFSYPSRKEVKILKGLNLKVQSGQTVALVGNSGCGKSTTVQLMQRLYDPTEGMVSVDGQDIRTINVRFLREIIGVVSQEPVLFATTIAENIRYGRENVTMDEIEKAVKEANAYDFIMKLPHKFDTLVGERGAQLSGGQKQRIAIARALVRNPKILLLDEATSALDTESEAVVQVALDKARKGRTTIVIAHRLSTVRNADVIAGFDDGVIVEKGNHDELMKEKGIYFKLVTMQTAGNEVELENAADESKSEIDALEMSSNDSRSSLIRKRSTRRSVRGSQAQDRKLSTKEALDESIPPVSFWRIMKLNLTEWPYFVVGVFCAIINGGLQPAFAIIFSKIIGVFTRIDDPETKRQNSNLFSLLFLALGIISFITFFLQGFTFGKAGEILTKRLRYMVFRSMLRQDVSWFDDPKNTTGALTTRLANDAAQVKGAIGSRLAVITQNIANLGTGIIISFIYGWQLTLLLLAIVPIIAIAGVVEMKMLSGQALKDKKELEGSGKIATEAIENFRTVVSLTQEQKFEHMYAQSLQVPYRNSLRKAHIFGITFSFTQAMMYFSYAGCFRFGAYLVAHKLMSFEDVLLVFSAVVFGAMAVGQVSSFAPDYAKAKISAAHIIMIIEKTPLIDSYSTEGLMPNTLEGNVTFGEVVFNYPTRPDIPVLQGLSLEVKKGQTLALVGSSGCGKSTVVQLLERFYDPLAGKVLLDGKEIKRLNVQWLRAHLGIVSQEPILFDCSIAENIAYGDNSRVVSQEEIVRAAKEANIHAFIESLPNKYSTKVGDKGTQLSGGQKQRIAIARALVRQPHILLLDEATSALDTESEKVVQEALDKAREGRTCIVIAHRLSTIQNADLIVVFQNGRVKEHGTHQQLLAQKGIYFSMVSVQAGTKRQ
smiles,measurement,setting,value
COc1cc2c(cc1OC)CN(CCc1ccc(NC(=O)c3cccc4c(=O)c5cccc(OC)c5[nH]c34)cc1)CC2.Cl [ELACRIDAR HYDROCHLORIDE],Activity,[1],inhibitor []
COc1ccc2c(C[C@@H]3NC(=O)[C@@H]4CCCN4C3=O)c(CC=C(C)C)[nH]c2c1 [TRYPROSTATIN A],Activity,[1],inhibitor []
same,Activity,[2],inhibitor []
CCCCCCCC/C=C\CCCCCCCC(=O)OC(COC(=O)CCCCCCC/C=C/CCCCCCCC)COP(=O)(O)OC[C@H](Nc1ccc([N+](=O)[O-])c2nonc12)C(=O)O (stereo partly specified),Activity,[3],substrate []
same,Activity,[4],substrate []
CCCCCCCCCCCCCCCC(=O)OCC(COP(=O)([O-])OCC[N+](C)(C)C)OC(=O)CCCCCNc1ccc([N+](=O)[O-])c2nonc12 (stereo unspecified),Activity,[4],substrate []
